PMC13659687, “Cloning, expression, tertiary structure, activity characteristics, design of inhibitor, hydrolysis and inhibition mechanisms analysis of carp adipose triglyceride lipase (ATGL)” (Food Chemistry: Molecular Sciences, 2026)
Where a SMILES comes first, the peptide text is derived from it.

Assay: Maximum solubility of the small peptide
Type: physicochemical
Conditions: neutral pH

maximum solubility (4 °C): approximately 0.4 mg/mL
maximum solubility (room temperature): approximately 0.7 mg/mL
Structure (SMILES): CC[C@H](C)[C@H](NC(=O)[C@H](CC(C)C)NC(=O)[C@@H](N)CCCCN)C(=O)N[C@@H](CCSC)C(=O)N[C@H](C(=O)O)C(C)C [Lys-Leu-Ile-Met-Val] (H-KLIMV-OH)
